The target in test [1] is T1, PDE4B: catalytic domain of human PDE4B from S152-S528 (Homo sapiens, UniProt Q07343).
T1 construct: The catalytic domain of human PDE4B from S152-S528; His6 (N, cleaved yes); thrombin cleavage site (N, cleaved yes); made in house; host or cells: E. coli BL21 (DE3) RIL
The experiment in a line: PDE4 IC50 determination by Scintillation Proximity Assay (SPA), PDE4B catalytic domain. It counts as biochemical. Conditions: [3H]cAMP SPA, 30 min at 30° C. The method in brief:
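Human PDE4B catalytic domain (80 ng/ml) hydrolysed [3H]cAMP in 50 mM Tris pH 7.5, 8.3 mM MgCl, 1.7 mM EGTA, 0.01% BSA for 30 min at 30 °C. Reaction was stopped with yttrium silicate SPA beads in 18 mM ZnSO4, and bound [3H]AMP was counted by scintillation. IC50 came from non-linear regression.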

In test [2] the target is T2, PDE4B2: full-length human PDE4B2 isozyme (Homo sapiens, UniProt Q07343).
T2 construct: made in house; host or cells: baculovirus infected insect cells (pFastBacHT)
Description: PDE4 IC50 determination by Scintillation Proximity Assay (SPA), full-length PDE4B2. It counts as biochemical. Conditions: cell lysate, [3H]cAMP SPA. The procedure, abridged: (§1)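 Unpurified enzyme from cell lysates (PDE4B2 2.5 μl, PDE4D5 0.083 μl of 50% glycerol stock/ml) hydrolysing [3H]cAMP in 50 mM Tris pH 7.5, 8.3 mM MgCl, 1.7 mM EGTA, 0.01% BSA, 30 min at 30 °C. Stopped with yttrium silicate SPA beads in 18 mM ZnSO4; bead-bound [3H]AMP counted. IC50 by non-linear regression.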
(In general: Scintillation proximity formats need no separation of bound from free tracer.)

For test [3], the target named is T3, PDE4D5: full-length human PDE4D5 isozyme (Homo sapiens, UniProt Q08499).
T3 construct: made in house; host or cells: baculovirus infected insect cells (pFastBacHT)
Description: PDE4 IC50 determination by Scintillation Proximity Assay (SPA), full-length PDE4D5. It counts as biochemical. Conditions: cell lysate, [3H]cAMP SPA. The procedure, abridged: as §1

Test [4] concerns TNF-α release from whole blood cultures stimulated with LPS. Description: IC50 by TNF alpha production upon stimulation of whole blood cultures with LPS. Conditions: human whole blood (buffy coat) culture, 100 ng/ml LPS, 4 hours; read-out: h TNFα IC50. It counts as cell-based. The method, then:
Compounds were assayed to generate IC50 numbers based on the inhibition of TNF-α release from whole blood cultures, using the following assay protocol (see Table 5 for compounds tested and results). Inhibition of PDE4B results in the inhibition of TNF-α release by whole blood cultures stimulated with lipopolysaccharide (LPS). The measurement of TNF-α release was used to assess compounds as PDE4B inhibitors.
Compounds were provided in DMSO at 20 mM and 2 μl per well was added to one row of a dilution plate. Added 98 μl of RPMI 1640 media with 2.5% heat inactivated FBS to each well containing compound. The same media with 2% DMSO was prepared and 60 μl was added to each of the empty wells in the dilution plate. The compound was serially diluted 1:3 (30 μl to 60 μl of media) for a total of 8 concentrations per compound. Wells were also prepared with 50 μM roflumilast and piclamilast as 100% inhibition controls, and 2% DMSO in media was used as 0% inhibition control. A 20 μl aliquot of each sample was transferred to an assay plate in duplicate.
Human buffy coat was obtained from the Stanford Medical School Blood Center and diluted with 7 volumes of RPMI 1640 media with 1% penicillin/streptomycin and 2.5% heat inactivated FBS. A 160 μl aliquot of the diluted blood was added to each well of the assay plates, mixed and incubated for 1 hour at 37° C. in 5% CO2. LPS (Sigma catalog number L2637) that had been diluted to 1 mg/ml in PBS and stored as 20 μl aliquots at −20° C. was thawed and diluted 1000× to 1 μg/ml. A 20 μl aliquot of this was added to each sample (final concentration 100 ng/ml LPS) after the 1 hour incubation. A background sample was prepared without addition of LPS as well. The samples were mixed on a shaker for one minute at 900 RPM and incubated for 4 hours at 37° C. in 5% CO2. The plates were then put on a shaker for one minute at 900 RPM, followed by centrifuging at 100×g for 10 minutes, deceleration setting of 5. The top 75 μl of supernatant was carefully pipetted to a new plate and frozen at −20° C.
A 50 μl aliquot of incubation buffer (Biosource International Immunoassay Kit:Human TNF-α catalog number KHC3011) was added to each well of a plate coated with monoclonal antibody specific for hTNF-α (Biosource kit). The supernatant blood samples were thawed and a 50 μl aliquot along with 50 μl of diluent buffer (Biosource kit) were added to incubation buffer and the samples were incubated for 2 hours at room temperature. The samples were washed 4 times with 300 μl/well wash buffer (Biosource kit). A 100 μl aliquot of biotinylated anti-TNFalpha (Biosource kit) was added and the samples incubated for 1 hour at room temperature. The samples were washed 4 times with 300 μl/well wash buffer. A 100 μl aliquot of Streptavidin-HRP solution (BioSource kit) was added and the samples incubated for 30 minutes at room temperature. The samples were washed 4 times with 300 μl/well wash buffer. A 100 μl aliquot of Chromagen (Biosource kit) was added and the samples incubated in the dark for 30 minutes. A 100 μl aliquot of stop solution (2N H2SO4) was added to each sample and samples were read at 450 nm on a WallacVictor for 0.1 sec/well.

Usually IC50 stands for the concentration needed to halve the response being measured.

T1 sequence (Q07343 324-700): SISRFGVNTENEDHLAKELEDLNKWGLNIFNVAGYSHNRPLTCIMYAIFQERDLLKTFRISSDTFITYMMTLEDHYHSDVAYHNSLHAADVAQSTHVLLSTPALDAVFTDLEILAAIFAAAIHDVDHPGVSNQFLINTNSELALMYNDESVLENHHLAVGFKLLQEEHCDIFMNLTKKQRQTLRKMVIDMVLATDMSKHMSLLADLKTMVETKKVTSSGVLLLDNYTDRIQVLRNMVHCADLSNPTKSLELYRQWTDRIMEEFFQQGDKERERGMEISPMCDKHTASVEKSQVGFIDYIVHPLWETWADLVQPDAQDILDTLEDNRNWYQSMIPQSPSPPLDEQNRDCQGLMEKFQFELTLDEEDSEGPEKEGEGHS
T3 sequence (Q08499 with tags, fused parts or gaps isoform Q08499-6): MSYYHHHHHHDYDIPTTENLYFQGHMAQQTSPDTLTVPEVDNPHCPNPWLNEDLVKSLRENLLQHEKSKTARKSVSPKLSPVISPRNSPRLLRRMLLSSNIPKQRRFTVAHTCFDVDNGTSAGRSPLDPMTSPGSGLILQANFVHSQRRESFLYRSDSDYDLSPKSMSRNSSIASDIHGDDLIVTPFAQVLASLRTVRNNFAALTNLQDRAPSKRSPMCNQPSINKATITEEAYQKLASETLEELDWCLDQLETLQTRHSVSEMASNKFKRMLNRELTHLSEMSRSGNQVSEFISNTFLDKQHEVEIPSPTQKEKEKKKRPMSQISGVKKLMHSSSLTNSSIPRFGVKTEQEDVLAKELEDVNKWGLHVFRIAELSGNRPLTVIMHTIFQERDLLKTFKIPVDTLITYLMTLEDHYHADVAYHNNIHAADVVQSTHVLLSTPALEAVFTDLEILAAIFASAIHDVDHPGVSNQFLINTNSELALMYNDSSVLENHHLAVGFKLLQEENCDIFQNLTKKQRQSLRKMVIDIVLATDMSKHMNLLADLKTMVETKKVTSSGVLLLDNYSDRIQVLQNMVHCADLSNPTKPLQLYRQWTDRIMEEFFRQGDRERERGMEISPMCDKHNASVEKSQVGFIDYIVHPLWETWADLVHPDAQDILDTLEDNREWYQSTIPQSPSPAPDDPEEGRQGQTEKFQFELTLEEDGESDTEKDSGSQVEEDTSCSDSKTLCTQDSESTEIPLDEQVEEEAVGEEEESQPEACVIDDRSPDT
T2 sequence (Q07343 with tags, fused parts or gaps isoform Q07343-2): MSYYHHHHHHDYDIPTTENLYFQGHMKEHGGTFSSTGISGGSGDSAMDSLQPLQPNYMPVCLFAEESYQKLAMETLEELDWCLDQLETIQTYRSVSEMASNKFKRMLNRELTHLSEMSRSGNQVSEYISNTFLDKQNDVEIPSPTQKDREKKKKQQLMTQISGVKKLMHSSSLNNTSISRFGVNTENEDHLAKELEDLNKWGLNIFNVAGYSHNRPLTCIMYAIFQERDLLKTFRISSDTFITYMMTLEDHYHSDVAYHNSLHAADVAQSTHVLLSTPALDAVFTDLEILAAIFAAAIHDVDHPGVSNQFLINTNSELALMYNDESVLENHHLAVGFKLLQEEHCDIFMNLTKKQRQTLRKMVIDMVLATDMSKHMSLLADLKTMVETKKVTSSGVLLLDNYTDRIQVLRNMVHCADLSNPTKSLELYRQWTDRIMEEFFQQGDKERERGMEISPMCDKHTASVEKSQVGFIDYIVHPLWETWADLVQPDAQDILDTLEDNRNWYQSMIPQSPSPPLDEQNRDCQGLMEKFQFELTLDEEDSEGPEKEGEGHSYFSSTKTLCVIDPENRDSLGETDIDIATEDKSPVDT

On to `COc1ccc(-c2cn(S(=O)(=O)c3cccc4cnccc34)c3ncccc23)cc1OC` [Compound 14, 5-[3-(3,4-Dimethoxy-phenyl)-pyrrolo[2,3-b]pyridine-1-sulfonyl]-isoquinoline], for which the IC50 in test [1] was under 10 µM; in test [2], under 10 µM; in test [3], under 10 µM; in test [4], at most 10 µM.
As for `COc1ccc(-c2cn(S(=O)(=O)Cc3cccc(Cl)c3)c3ncccc23)cc1OC` [Compound 9, 1-(3-chloro-phenylmethanesulfonyl)-3-(3,4-dimethoxy-phenyl)-1H-pyrrolo[2,3-b]pyridine], the IC50 in test [1] is under 10 µM; in test [2], under 10 µM; in test [3] it was under 10 µM; in test [4], at most 10 µM.
Take `CCOc1ccc2ccccc2c1C(=O)n1ccc2cc(-c3ccc(OC)c(OC)c3)cnc21` [Compound 80, [5-(3,4-Dimethoxy-phenyl)-pyrrolo[2,3-b]pyridin-1-yl]-(2-ethoxy-naphthalen-1-yl)-methanone]: the IC50 in test [1] was under 10 µM; in test [2], under 10 µM; in test [3], under 10 µM; in test [4], over 10 µM.
`COc1ccc(-c2cnc3[nH]ccc3c2)cc1OC` [Compound 82, 5-(3,4-Dimethoxy-phenyl)-1H-pyrrolo[2,3-b]pyridine]: the IC50 is under 10 µM in test [1], under 10 µM in test [2], under 10 µM in test [3] and at most 10 µM in test [4].
`COc1ccc(-c2cn(Cc3c(C)ccc4ccccc34)c3ncccc23)cc1OC` [Compound 76, 3-(3,4-Dimethoxy-phenyl)-1-(2-methyl-naphthalen-1-ylmethyl)-1H-pyrrolo[2,3-b]pyridine]: the IC50 in test [1] was under 10 µM; in test [2], under 10 µM; in test [3], under 10 µM; in test [4], at most 10 µM.
`COc1ccc(-c2cn(C(=S)Nc3ccccc3)c3ncccc23)cc1OC` [Compound 41, 3-(3,4-dimethoxy-phenyl)-pyrrolo[2,3-b]pyridine-1-carbothioic acid phenylamide]: the IC50 was under 10 µM in test [1], under 10 µM in test [2], under 10 µM in test [3] and at most 10 µM in test [4].
For the molecule `COc1ccc(-c2cn(C(=O)c3ccc(C)c4ccccc34)c3ncccc23)cc1OC` [Compound 114, [3-(3,4-Dimethoxy-phenyl)-pyrrolo[2,3-b]pyridin-1-yl]-(4-methyl-naphthalen-1-yl)-methanone], the IC50 in test [1] is under 10 µM; in test [2] it was under 10 µM; in test [3], under 10 µM; in test [4], at most 10 µM.
As for `COc1ccc(-c2cn(S(=O)(=O)c3ccc(-c4nnc(C)o4)cc3)c3ncccc23)cc1OC` [Compound 73, 3-(3,4-Dimethoxy-phenyl)-1-[4-(5-methyl-[1,3,4]oxadiazol-2-yl)-benzenesulfonyl]-1H-pyrrolo[2,3-b]pyridine], the IC50 was under 10 µM in test [1], under 10 µM in test [2], under 10 µM in test [3] and at most 10 µM in test [4].
Turning to `COc1ccc(-c2cn(S(=O)(=O)c3ccc(C)c4ccccc34)c3ncccc23)cc1OC` [Compound 12, 3-(3,4-Dimethoxy-phenyl)-1-(4-methyl-naphthalene-1-sulfonyl)-1H-pyrrolo[2,3-b]pyridine], the 50% inhibitory concentration (IC50) is under 10 µM in test [1], under 10 µM in test [2], under 10 µM in test [3] and over 10 µM in test [4].
Turning to `COc1ccc(-c2cn(C(=O)c3cccc4ccccc34)c3ncccc23)cc1OC` [Compound 58, [3-(3,4-Dimethoxy-phenyl)-pyrrolo[2,3-b]pyridin-1-yl]-(1-naphthyl)-methanone-amide], the IC50 in test [1] is under 10 µM; in test [2], under 10 µM; in test [3], under 10 µM; in test [4] it was at most 10 µM.
Take `COc1ccc(-c2cn(C(=O)Nc3cccc(C(C)=O)c3)c3ncccc23)cc1OC` [Compound 34, 3-(3,4-Dimethoxy-phenyl)-pyrrolo[2,3-b]pyridine-1-carboxylic acid (3-acetyl-phenyl)-amide]: the half-maximal inhibitory concentration (IC50) was under 10 µM in test [1], under 10 µM in test [2], under 10 µM in test [3] and at most 10 µM in test [4].
Regarding `CCOc1ccccc1C(=O)n1ccc2c(-c3ccc(OC)c(OC)c3)ccnc21` [Compound 51, [4-(3,4-Dimethoxy-phenyl)-pyrrolo[2,3-b]pyridin-1-yl]-(2-ethoxy-phenyl)-methanone], the IC50 in test [1] was under 10 µM; in test [2], under 10 µM; in test [3], under 10 µM; in test [4], over 10 µM.
In the case of `COc1ccc(-c2cn(Cc3cccc(C(F)(F)F)c3)c3ncccc23)cc1OC` [Compound 79, 3-(3,4-Dimethoxy-phenyl)-1-(3-trifluoromethyl-benzyl)-1H-pyrrolo[2,3-b]pyridine], the IC50 in test [1] is under 10 µM; in test [2], under 10 µM; in test [3] it was under 10 µM; in test [4], at most 10 µM.
Take `COc1ccc(-c2cn(C(=O)Nc3ccc(Cl)cc3)c3ncccc23)cc1OC` [Compound 26, 3-(3,4-dimethoxy-phenyl)-pyrrolo[2,3-b]pyridine-1-carboxylic acid (4-chloro-phenyl)-amide]: the IC50 was under 10 µM in test [1], under 10 µM in test [2], under 10 µM in test [3] and at most 10 µM in test [4].
`COc1ccc(-c2cn(Cc3ccccc3-c3ccccc3)c3ncccc23)cc1OC` [Compound 78, 1-Biphenyl-2-ylmethyl-3-(3,4-dimethoxy-phenyl)-1H-pyrrolo[2,3-b]pyridine]: the half-inhibitory concentration (IC50) in test [1] was under 10 µM; in test [2], under 10 µM; in test [3], under 10 µM; in test [4], at most 10 µM.
Turning to `COc1ccc(-c2cn(C(=O)c3cnccc3C(F)(F)F)c3ncccc23)cc1OC` [Compound 57, [3-(3,4-Dimethoxy-phenyl)-pyrrolo[2,3-b]pyridin-1-yl]-(4-trifluoromethypyridn-3-yl)-methanone-amide], the IC50 was under 10 µM in test [1], under 10 µM in test [2], under 10 µM in test [3] and over 10 µM in test [4].
`COc1ccc(-c2ccnc3c2ccn3S(=O)(=O)Cc2ccccc2)cc1OC` [Compound 127, 4-(3,4-Dimethoxy-phenyl)-1-phenylmethanesulfonyl-1H-pyrrolo[2,3-b]pyridine]: the IC50 was under 10 µM in test [1], under 10 µM in test [2], under 10 µM in test [3] and at most 10 µM in test [4].
Regarding `COc1ncc(-c2cn(S(=O)(=O)c3cccc4cccnc34)c3ncccc23)cn1` [Compound 43, 8-[3-(2-methoxy-pyrimidin-5-yl)-pyrrolo[2,3-b]pyridine-1-sulfonyl]-quinoline], the IC50 in test [1] is under 10 µM; in test [2] it was under 10 µM; in test [3] it was under 10 µM; in test [4], at most 10 µM.

The record behind these values is US7605168B2 (Plexxikon, Inc., priority 2004, dated 2009).
